Data from patent publication US9908877B2, “Imidazo[1,5-a]pyridinium ion fluorophores, and methods of making and using the same” (Indiana University Research and Technology Corporation, priority 2013, dated 2018).

Tests used:
Assay type in all cases: physicochemical
[1] = Fluorescence emission spectrum (maximum emission wavelength)
Procedure: Method for Obtaining a Fluorescence Emission Spectrum
Fluorescence emission spectra are obtained and recorded on a QM-4-CW Spectrofluorometer using FeliX32 software (Photon Technology International, Inc., Birmingham, N.J.).
(§1) The compounds were analyzed at 298° K according to the Method for Obtaining Ultraviolet-Visible Light Spectrum (30 μM acetonitrile) to obtain the maximum absorbance wavelength (λabs,max), Method for Obtaining Fluorescence Emission Spectrum (30 μM acetonitrile) to obtain the maximum emission wavelength (λem,max) and Method for Determining Quantum Yield (ΦF) (30 μM acetonitrile) at the concentration, in the solvent, and with the counter ion indicated in Table 1. The compounds included hydrogen at each R group that is not otherwise specified.
(§2) Compounds 6, 7, 9, 11-14 and 21 were analyzed according to: the Method for Obtaining Ultraviolet-Visible Light Spectrum to obtain the maximum absorbance wavelength (λabs,max), the Method for Obtaining Fluorescence Emission Spectrum to obtain the maximum emission wavelength (λem,max), and the Method for Determining Quantum Yield (ΦF) in the solvent and with the counter ion indicated in Table 3.

[2] = Ultraviolet-visible light spectrum (maximum absorbance wavelength)
Procedure: Method for Obtaining an Ultraviolet-Visible Light Spectrum
Ultraviolet-visible (UV-Vis) Light spectra are obtained and recorded on an Agilent 8453 spectrophotometer using ChemStation software (Agilent Technologies, Inc., Santa Clara, Calif.).
as §1, §2

[3] = Fluorescence quantum yield, integrating sphere; settings: for ΦF (quantum yield): 30 μM acetonitrile, 298 K, Table 1
Procedure: Method for Determining Quantum Yield
Quantum yield is determined using an integrating sphere attached to a QM-4-CW Spectrofluorometer using FeliX32 software (Photon Technology International).
as §1, §2

[4] = Fluorescence response to pH in buffered water; settings: for fluorescence emission in water at pH 7.5: water pH 7.5
Procedure: Stock solutions of each compound (having a concentration of from 1-5 mM) were prepared by dissolving the corresponding salts of the compounds in methanol or 1V, N-dimethylformamide, and then diluting the same with acetonitrile or buffered water having a pH of from 2.5 to 7.5 derived from 0.2 M […] and 0.1 M citric acid, to achieve a sample solution having a compound concentration of 30.0 μM.
The emission spectrum for each sample was obtained. The results are illustrated by the plot in FIG. 2A.
The emission spectrum for each sample was obtained. […] The results are illustrated in the plot of FIG. 2B.
The fluorescence emission spectrum of Compound 8 in water having a pH of 2.5 was also obtained and is illustrated by the curved line with a peak at 360 nm in FIG. 5B.
Compounds 10, 11, and 12 were each individually added, at a concentration of 30 μM, to water having a pH=7.5 and the emission spectra of each were obtained. […] As the pH was decreased from 7.5 to 2.5 in 0.5 pH unit increments, fluorescence emission at 600 nm remained relatively nonexistent and the intensity of the fluorescence emission at 400 nm increased in correlation to the decrease in pH. FIG. 8A illustrates the emission properties of Compound 12.

[5] = Fluorescence response to trifluoroacetic acid / DBU in acetonitrile; settings: for emission wavelength λem,max: acetonitrile + 50 μL trifluoroacetic acid; for emission intensity at 400 nm: 30 μM in acetonitrile + 50 μL trifluoroacetic acid; for emission intensity at 600 nm / emission wavelength: 30 μM in neat acetonitrile
Procedure: A 30 μM solution of Compound 6 in acetonitrile was prepared by adding 99 μL of a stock solution of 3.04 mM Compound 6 in methanol to 10 mL of acetonitrile. An initial fluorescence emission spectrum of the solution was obtained and is illustrated by curve (i) in FIG. 1A.
A series of approximately 13.8 μL aliquots of trifluoroacetic acid (TFA) were then added to the 30 μM solution of Compound 6 until a total concentration of 60.0 mM of TFA was present in the solution. (The total amount of TFA present in the solution corresponded to 2000 equivalents of acid per equivalent of Compound 6.) The fluorescence emission spectrum of the resulting solution was obtained and is illustrated by curve (ii) in FIG. 1A.
A base, i.e., 1,8-diazabicyclo[5.4.0]undec-7-ene (DBU), was then added to the solution to neutralize the acid until a concentration of 90 mM DBU was obtained. The fluorescence emission spectrum of the resulting solution was obtained and is illustrated by curve (iii) in FIG. 1A. The fluorescence emission intensity at λem,max=565 nm increased as the amount of base present in the system increased and the fluorescence emission intensity at λem,max=405 nm decreased as the amount of base present in the system increased, which reflected Compound 6's ratiometric response to the changing base concentration in acetonitrile.
A 30 μM solution of Compound 7 in acetonitrile was prepared by adding 84 μL of a stock solution of 3.58 mM Compound 7 in methanol to 10 mL of acetonitrile. The emission spectrum of the solution was then obtained and is illustrated by curve (i) in FIG. 1B.
A series of approximately 13.8 μL aliquots of TFA were then added to the 30 μM solution of Compound 7 until a total concentration of 60.0 mM TFA was present in the solution (which corresponded to 2000 equivalents of acid per equivalent of Compound 7). The fluorescence emission spectrum of the solution was obtained and is illustrated by curve (ii) in FIG. 1B.
After the 60 mM TFA concentration was achieved, DBU was gradually added to the solution until a total concentration of 90 mM DBU was present in the solution. The fluorescence spectrum of the solution was obtained and is illustrated by curve (iii) in FIG. 1B.
An aliquot of 50 μL of trifluoroacetic acid was then added to the system, and the fluorescence emission spectrum was obtained and is illustrated by the curved line with a peak at 360 nm in FIG. 6A.
Compound 10 was placed in neat acetonitrile and its emission spectrum was monitored as trifluoroacetic acid was added to the acetonitrile in incremental amounts to achieve a solution that included an acid concentration ranging from 0 to 0.2 M. After each acid addition the sample was excited with radiation of a wavelength 340 nm, and its fluorescence emission spectrum was monitored. The results are illustrated in FIG. 7A.
The solution of Compound 10 in acetonitrile was titrated with trifluoroacetic acid (TFA). […] The first stage, which occurred with the addition of the initial aliquots of TFA, was a slight increase intensity at 580 nm, as illustrated in FIG. 7A. As more TFA was added to the system, a second transition occurred in which the emission at 580 nm began to decrease and as the emission at 400 nm began to increase, as illustrated in FIG. 7B. A plot of the emission intensity at 580 nm versus pH and at 400 nm versus pH is illustrated in FIG. 7C.
Compounds 10, 11, and 12 were then each individually added, at a concentration of 30 μM, to acetonitrile and the emission spectrum of each was monitored. The compounds emitted at 600 nm with an intensity of about 7.57×10^5 arbitrary units (a.u.) in neat acetonitrile. […] FIG. 8B illustrates the emission properties of Compound 12.

[6] = 30 μM acetonitrile, 298 K, Table 1

| λem, max Em [1, 6] [nm] | λabs, max Abs [2, 6] [nm] | ΦF (quantum yield) [3] [%] | fluorescence emission in water at pH 7.5 [4] | emission wavelength λem,max [5] [nm] | λem, max Em ([1]; MeCN, 30 μM) [nm] | λabs, max Abs ([2]; MeCN, 30 μM) [nm] | […]F (quantum yield) ([3]; MeCN, 30 μM) [%] | λabs, max Abs ([2]; H2O pH = 7.5, 30 μM) [nm] | […]F (quantum yield) ([3]; H2O pH = 7.5, 30 μM) [%] | SMILES | other results |
| --- | --- | --- | --- | --- | --- | --- | --- | --- | --- | --- | --- |
| 415 | 320 | 46 |  |  |  |  |  |  |  | CCCCn1c[n+]2ccccc2c1-c1ccc(C)cc1 [Compound 3, 2-butyl-1-(p-tolyl)-2H-imidazo[1,5-a]pyridin-4-ium tertraphenylborate] |  |
| 430 | 320 | 64 |  |  |  |  |  |  |  | CCCCn1c[n+]2ccccc2c1-c1ccc(OC)cc1.[Cl-] [Compound 4, 2-butyl-1-(4-methoxyphenyl)-2H-imidazo[1,5-a]pyridin-4-ium chloride] |  |
| 550 | 355 | 38 |  |  |  |  |  |  |  | CCCCn1c[n+]2ccccc2c1-c1ccc(N(CC)CC)cc1 [Compound 5, 2-butyl-1-(4-(diethylamino)phenyl)-2H-imidazo[1,5-a]pyridin-4-ium tetraphenylborate] |  |
|  |  |  | fluorescence quenching | 360 |  |  |  |  |  | CC(C)c1cc(N(C)C)cc(C(C)C)c1-n1cc2cccc[n+]2c1 [Compound 8, 2-(4-(dimethylamino)-2,6-diisopropylphenyl)-2H-imidazo[1,5-a]pyridin-4-ium tetraphenylborate] | fluorescence λem ([4]; water, pH 2.5): 360 nm; fluorescence emission in neat acetonitrile ([5]; acetonitrile without acid): fluorescence quenching |
|  |  |  |  |  | 490 | 350 | 75 |  |  | CCCCn1cc2cccc(-c3ccc(N(C)C)cc3)[n+]2c1 [Compound 9, 2-butyl-5-(4-(dimethylamino)phenyl)-2H-imidazo[1,5-a]pyridin-4-ium tetraphenylborate] |  |
|  |  |  | essentially no fluorescence emission | 400 |  |  |  |  |  | CCN(CC)c1ccc(-n2cc(-c3cccc4cn(-c5ccc(N(C)C)cc5)c[n+]34)nn2)cc1.[Cl-] [Compound 10, 5-(1-(4-(diethylamino)phenyl)-1H-1,2,3-triazol-4-yl)-2-(4-(dimethylamino)phenyl)-2H-imidazo[1,5-a]pyridin-4-ium chloride] | emission intensity at 400 nm [5]: 1.34×10^6 a.u.; emission intensity at 600 nm [5]: about 7.57×10^5 arbitrary units (a.u.); emission wavelength [5]: 600 nm; emission response to stepwise addition of TFA ([5]; acetonitrile, TFA 0 to 0.2 M, excited at 340 nm, emission at 580 nm and 400 nm): two stage transitions |
|  |  |  | essentially no fluorescence emission | 400 | 605 | 400 | 35 | 340 | 0 | Cc1ccc(-n2cc(-c3cccc4cn(-c5ccc(N(C)C)cc5)c[n+]34)nn2)cc1.[Cl-] [Compound 11, 2-(4-(dimethylamino)phenyl)-5-(1-(p-tolyl)-1H-1,2,3-triazol-4-yl)-2H-imidazo[1,5-a]pyridin-4-ium chloride] | emission intensity at 400 nm [5]: 1.34×10^6 a.u.; emission intensity at 600 nm [5]: about 7.57×10^5 arbitrary units (a.u.); emission wavelength [5]: 600 nm; λem, max Em ([1]; H2O pH = 2.5, 30 μM): 400 nm; λem, max Em ([1]; MeCN + 50 μL TFA, 30 μM): 405 nm; λabs, max Abs ([2]; H2O pH = 2.5, 30 μM): 340 nm; λabs, max Abs ([2]; MeCN + 50 μL TFA, 30 μM): 340 nm; […]F (quantum yield) ([3]; H2O pH = 2.5, 30 μM): 29%; […]F (quantum yield) ([3]; MeCN + 50 μL TFA, 30 μM): 55% |
|  |  |  |  |  |  | 340 | 0 | 340 | 0 | Cc1ccc(-n2cc3cccc(-c4cn(-c5ccc(N(C)C)cc5)nn4)[n+]3c2)cc1.[Cl-] [Compound 13, 5-(1-(4-(dimethylamino)phenyl)-1H-1,2,3-triazol-4-yl)-2-(p-tolyl)-2H-imidazo[1,5-a]pyridin-4-ium chloride] | λem, max Em ([1]; H2O pH = 2.5, 30 μM): 405 nm; λem, max Em ([1]; MeCN + 50 μL TFA, 30 μM): 410 nm; λabs, max Abs ([2]; H2O pH = 2.5, 30 μM): 340 nm; λabs, max Abs ([2]; MeCN + 50 μL TFA, 30 μM): 340 nm; […]F (quantum yield) ([3]; H2O pH = 2.5, 30 μM): 59%; […]F (quantum yield) ([3]; MeCN + 50 μL TFA, 30 μM): 67% |
|  |  |  |  |  |  | 340 | 0 | 340 | 0 | CCN(CC)c1ccc(-n2cc(-c3cccc4cn(-c5ccc(C)cc5)c[n+]34)nn2)cc1.[Cl-] [Compound 14, 5-(1-(4-(diethylamino)phenyl)-1H-1,2,3-triazol-4-yl)-2-(p-tolyl)-2H-imidazo[1,5-a]pyridin-4-ium chloride] | λem, max Em ([1]; H2O pH = 2.2, 30 μM): 405 nm; λem, max Em ([1]; MeCN + excess TFA, 30 μM): 410 nm; λabs, max Abs ([2]; H2O pH = 2.2, 30 μM): 340 nm; λabs, max Abs ([2]; MeCN + excess TFA, 30 μM): 340 nm; […]F (quantum yield) ([3]; H2O pH = 2.2, 30 μM): 53%; […]F (quantum yield) ([3]; MeCN + excess TFA, 30 μM): 64% |
|  |  |  |  |  | 540 | 360 | 10 |  |  | COc1ccc(-n2cc3cccc(-c4ccc(N(C)C)cc4)[n+]3c2)cc1 [Compound 21, 5-(4-(dimethylamino)phenyl)-2-(4-methoxyphenyl)-2H-imidazo[1,5-a]pyridin-4-ium tetraphenylborate] |  |
